Reference: US20230373989A1, “N-PHENYLAMINOCARBONYL PYRIDINO-, PYRIMIDINO AND BENZO-TROPANES AS MODULATORS OF GPR65” (PATHIOS THERAPEUTICS LIMITED, priority 2020, published 2023)
Where two headings read alike, the source gives them in different places.

Target: T1, human recombinant GPR65 (Homo sapiens, UniProt Q8IYL9)
T1 construct: host or cells: 1321N1 human astrocytoma cells (1321N1-hrGPR65)
Assay: Human GPR65 cAMP HTRF antagonist assay
Assay type: cell-based
How it was run: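 1321N1 astrocytoma cells stably expressing GPR65 were preincubated with compound for 30 min at room temperature in KRH pH 7.6 with 1 mM IBMX and 200 μM EDTA. They were then stimulated at assay pH 7.2 for 30 min, with controls at pH 7.9. cAMP was read by HTRF (665/620 nm), normalised to controls and fitted by 4-parameter logistic to give IC50.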

[1] = 1321N1-hrGPR65 cells, assay pH 7.2, cAMP HTRF, read-out: hGPR65 IC50 (activity class)

T1 sequence (Q8IYL9 whole entry): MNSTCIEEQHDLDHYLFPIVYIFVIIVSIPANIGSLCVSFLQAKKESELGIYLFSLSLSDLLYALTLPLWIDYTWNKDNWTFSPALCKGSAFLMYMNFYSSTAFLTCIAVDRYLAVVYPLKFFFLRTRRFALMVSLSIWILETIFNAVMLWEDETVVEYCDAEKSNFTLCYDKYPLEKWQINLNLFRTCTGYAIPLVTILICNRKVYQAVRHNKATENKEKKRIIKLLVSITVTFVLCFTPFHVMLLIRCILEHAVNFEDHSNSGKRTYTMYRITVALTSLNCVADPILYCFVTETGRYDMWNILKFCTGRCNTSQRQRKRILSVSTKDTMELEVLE

Compound	IC50 [1]	IC50
O=C(Nc1ccc(Cl)c(Cl)c1)N1C2CCC1c1cnc(Br)cc1C2 (racemic) [Compound 99, (±)-3-Bromo-N-(3,4-dichlorophenyl)-6,7,8,9-tetrahydro-5H-6,9-epiminocyclohepta[c]pyridine-10-carboxamide]	> 5000 nM	–
COC(=O)c1cc(NC(=O)N2[C@H]3CC[C@@H]2c2c[nH]c(=O)cc2C3)c(F)cc1Cl [Compound 132, Methyl 2-chloro-4-fluoro-5-((6S,9R)-3-oxo-3,5,6,7,8,9-hexahydro-2H-6,9-epiminocyclohepta[c]pyridine-10-carboxamido)benzoate]	500 to 5000 nM	–
Nc1nccc2c1C1CCC(C2)N1C(=O)Nc1ccc(Cl)c(Cl)c1 (racemic) [Compound 61, (±)-1-Amino-N-(3,4-dichlorophenyl)-6,7,8,9-tetrahydro-5H-6,9-epiminocyclohepta[c]pyridine-10-carboxamide]	500 to 5000 nM	–
N#Cc1cc(NC(=O)N2[C@H]3CC[C@@H]2c2ccnc(F)c2C3)ccc1C(F)(F)F [Compound 151, (5R,8S)-N-(3-cyano-4-(trifluoromethyl)phenyl)-1-fluoro-6,7,8,9-tetrahydro-5H-5,8-epiminocyclohepta[c]pyridine-10-carboxamide]	–	< 500 nM
O=C(Nc1ccc(Cl)c(Cl)c1)N1C2CCC1C(F)c1ncncc12 (racemic) [Compound 114, trans-(±)-N-(3,4-Dichlorophenyl)-9-fluoro-6,7,8,9-tetrahydro-5H-5,8-epiminocyclohepta[d]pyrimidine-10-carboxamide]	500 to 5000 nM	–
O=C(Nc1cc(Cl)c(C(F)(F)F)cc1F)N1C2CCC1c1ccc(=O)[nH]c1C2 (racemic) [Compound 189, (±)-N-(5-Chloro-2-fluoro-4-(trifluoromethyl)phenyl)-2-oxo-2,5,6,7,8,9-hexahydro-1H-5,8-epiminocyclohepta[b]pyridine-10-carboxamide]	–	< 500 nM
O=C(Nc1cc(Cl)c(Cl)cc1F)N1C2CCC1c1c[nH]c(=O)c(F)c1C2 (racemic) [Compound 139, (±)-N-(4,5-Dichloro-2-fluorophenyl)-4-fluoro-3-oxo-3,5,6,7,8,9-hexahydro-2H-6,9-epiminocycloheptan[c]pyridine-10-carboxamide]	–	< 500 nM
O=C(Nc1ccc(Cl)c(Cl)c1)N1C2CCC1c1cccc(F)c1C2 (racemic) [Compound 83, (±)-N-(3,4-Dichlorophenyl)-1-fluoro-6,7,8,9-tetrahydro-5H-5,8-epiminobenzo[7]annulene-10-carboxamide]	500 to 5000 nM	–
O=C(Nc1ccc(C(F)(F)F)c(Cl)c1)N1C2CCC1c1cnc(-c3ccccc3)nc1C2 (racemic) [Compound 29, (±)-N-(3-Chloro-4-(trifluoromethyl)phenyl)-2-phenyl-6,7,8,9-tetrahydro-5H-5,8-epiminocyclohepta[d]pyrimidine-10-carboxamide]	500 to 5000 nM	–
O=C(Nc1cc(Cl)ccc1F)N1C2CCC1c1ccnc(F)c1C2 (racemic) [Compound 174, (±)-N-(5-Chloro-2-fluorophenyl)-1-fluoro-6,7,8,9-tetrahydro-5H-5,8-epiminocyclohepta[c]pyridine-10-carboxamide]	–	< 500 nM
O=C(Nc1cc(Cl)c(C(F)(F)F)cc1F)N1C2CCC1c1c(Cl)nnc(Cl)c1C2 (racemic) [Compound 195, (±)-1,4-Dichloro-N-(5-chloro-2-fluoro-4-(trifluoromethyl)phenyl)-6,7,8,9-tetrahydro-5H-5,8-epiminocyclohepta[d]pyridazine-10-carboxamide]	500 to 5000 nM	–
O=C(Nc1cc(Cl)c(Cl)c(Cl)c1)N1C2CCC1c1ccnc(F)c1C2 (racemic) [Compound 166, (±)-1-Fluoro-N-(3,4,5-trichlorophenyl)-6,7,8,9-tetrahydro-5H-5,8-epiminocyclohepta[c]pyridine-10-carboxamide]	–	< 500 nM
O=C(Nc1ccc(Cl)c(Cl)c1)N1C2CCC1c1ccnc(F)c1C2 (racemic) [Compound 109, (±)-N-(3,4-Dichlorophenyl)-1-fluoro-6,7,8,9-tetrahydro-5H-5,8-epiminocyclohepta[c]pyridine-10-carboxamide]	–	< 500 nM
O=C(Nc1ccc(C(F)(F)F)c(Cl)c1)N1C2CCC1c1cnc(=O)[nH]c1C2 (racemic) [Compound 32, (±)-N-(3-Chloro-4-(trifluoromethyl)phenyl)-2-oxo-2,5,6,7,8,9-hexahydro-1H-5,8-epiminocyclohepta[d]pyrimidine-10-carboxamide]	–	< 500 nM
O=C(Nc1ccc(F)cc1F)N1C2CCC1c1ccnc(F)c1C2 (racemic) [Compound 162, (±)-N-(2,4-Difluorophenyl)-1-fluoro-6,7,8,9-tetrahydro-5H-5,8-epiminocyclohepta[c]pyridin-10-carboxamide]	500 to 5000 nM	–
O=C(Nc1cccc(OC(F)(F)F)c1)N1C2CCC1c1ccnc(F)c1C2 (racemic) [Compound 171, (±)-1-Fluoro-N-(3-(trifluoromethoxy)phenyl)-6,7,8,9-tetrahydro-5H-5,8-epiminocyclohepta[c]pyridine-10-carboxamide]	–	< 500 nM

Compound	IC50 [1]	IC50
N#Cc1cc(NC(=O)N2[C@H]3CC[C@@H]2c2ccnc(F)c2C3)ccc1Cl [Compound 199, (5R,8S)-N-(4-Chloro-3-cyanophenyl)-1-fluoro-6,7,8,9-tetrahydro-5H-5,8-epiminocyclohepta[c]pyridine-10-carboxamide]	–	< 500 nM
COc1ccc(NC(=O)N2C3CCC2c2cncnc2C3)cc1Cl (racemic) [Compound 8, (±)-N-(3-Chloro-4-methoxyphenyl)-6,7,8,9-tetrahydro-5H-5,8-epiminocyclohepta[d]pyrimidine-10-carboxamide]	> 5000 nM	–
O=C(Nc1cc(Cl)c(Cl)cc1F)N1[C@H]2CC[C@@H]1c1ccnc(C(F)(F)F)c1C2 [Compound 200, (5R,8S)-N-(4,5-dichloro-2-fluorophenyl)-1-(trifluoromethyl)-6,7,8,9-tetrahydro-5H-5,8-epiminocyclohepta[c]pyridine-10-carboxamide]	500 to 5000 nM	–
O=C(Nc1ccc(Cl)c(Cl)c1)N1C2CCC1c1c(ccnc1F)C2 (racemic) [Compound 68, (±)-N-(3,4-Dichlorophenyl)-1-fluoro-6,7,8,9-tetrahydro-5H-6,9-epiminocyclohepta[c]pyridine-10-carboxamide]	500 to 5000 nM	–
O=C(Nc1ccc(Cl)c(Cl)c1)N1[C@@H]2CC[C@H]1c1ccncc1C2 [Compound 107, (5S,8R)-N-(3,4-Dichlorophenyl)-6,7,8,9-tetrahydro-5H-5,8-epiminocyclohepta[c]pyridine-10-carboxamide]	> 5000 nM	–
C[C@H]1c2cnccc2[C@H]2CC[C@@H]1N2C(=O)Nc1ccc(Cl)c(Cl)c1 [Compound 134, (5R,8S,9S)-N-(3,4-Dichlorophenyl)-9-methyl-6,7,8,9-tetrahydro-5H-5,8-epiminocyclohepta[c]pyridine-10-carboxamide]	–	< 500 nM
O=C(Nc1ccc(OC(F)(F)F)cc1)N1C2CCC1c1ccnc(F)c1C2 (racemic) [Compound 157, (±)-1-Fluoro-N-(4-(trifluoromethoxy)phenyl)-6,7,8,9-tetrahydro-5H-5,8-epiminocyclohepta[c]pyridin-10-carboxamide]	–	< 500 nM
O=C(Nc1ccc(C(F)(F)F)c(Cl)c1)N1[C@H]2CC[C@@H]1c1ccnc(F)c1C2 [Compound 85, (5R,8S)-N-(3-Chloro-4-(trifluoromethyl)phenyl)-1-fluoro-6,7,8,9-tetrahydro-5H-5,8-epiminocyclohepta[c]pyridine-10-carboxamide]	–	< 500 nM
O=C(Nc1ccc(Cl)c(Cl)c1)N1C2CCC1c1ccc(Cl)cc1C2 (racemic) [Compound 60, (±)-2-Chloro-N-(3,4-dichlorophenyl)-6,7,8,9-tetrahydro-5H-5,8-epiminobenzo[7]annulene-10-carboxamide]	–	< 500 nM
O=C(Nc1cc(Br)c(C(F)(F)F)cc1F)N1[C@H]2CC[C@@H]1c1c[nH]c(=O)cc1C2 [Compound 144, (6S,9R)-N-(5-Bromo-2-fluoro-4-(trifluoromethyl)phenyl)-3-oxo-3,5,6,7,8,9-hexahydro-2H-6,9-epiminocyclohepta[c]pyridine-10-carboxamide]	–	< 500 nM
Cc1ccc(NC(=O)N2C3CCC2c2ccnc(F)c2C3)cc1C(F)(F)F (racemic) [Compound 160, (±)-1-Fluoro-N-(4-methyl-3-(trifluoromethyl)phenyl)-6,7,8,9-tetrahydro-5H-5,8-epiminocyclohepta[c]pyridine-10-carboxamide]	–	< 500 nM
Cc1ncoc1-c1ccc(NC(=O)N2[C@H]3CC[C@@H]2c2ccnc(F)c2C3)cc1 [Compound 187, (5R,8S)-1-Fluoro-N-(4-(4-methyloxazol-5-yl)phenyl)-6,7,8,9-tetrahydro-5H-5,8-epiminocyclohepta[c]pyridine-10-carboxamide]	–	500 to 5000 nM
COc1cc(Cl)c(Cl)cc1NC(=O)N1[C@H]2CC[C@@H]1c1ccnc(F)c1C2 [Compound 118, (5R,8S)—N-(4,5-dichloro-2-methoxyphenyl)-1-fluoro-6,7,8,9-tetrahydro-5H-5,8-epiminocyclohepta[c]pyridine-10-carboxamide]	500 to 5000 nM	–
N#Cc1ccc(NC(=O)N2C3CCC2c2cncnc2C3)cc1Br (racemic) [Compound 13, (±)-N-(3-Bromo-4-cyanophenyl)-6,7,8,9-tetrahydro-5H-5,8-epiminocyclohepta[d]pyrimidine-10-carboxamide]	> 5000 nM	–
O=C(Nc1ccc(Br)cc1)N1C2CCC1c1ccnc(F)c1C2 (racemic) [Compound 168, (±)-N-(4-Bromophenyl)-1-fluoro-6,7,8,9-tetrahydro-5H-5,8-epiminocyclohepta[c]pyridine-10-carboxamide]	–	< 500 nM
O=C(Nc1ccc(Cl)c(Cl)c1)N1[C@H]2CC[C@@H]1c1ccnc(F)c1C2 [Compound 78, (5R,8S)-N-(3,4-Dichlorophenyl)-1-fluoro-6,7,8,9-tetrahydro-5H-5,8-epiminocyclohepta[c]pyridine-10-carboxamide]	–	< 500 nM
